Assay results published in US10202374B2, “6-aryl-4-phenylamino-quinazoline analogs as phosphoinositide-3-kinase inhibitors” (COUNCIL OF SCIENTIFIC & INDUSTRIAL RESEARCH, priority 2014, dated 2019).

These compounds were tested against PI3K-α (Homo sapiens, UniProt P42336) (assay: PI3K-α assay (ADP-Glo)). Settings: 0.5 μM, preliminary screening.
Assay type: biochemical
Experimental: The enzyme is assayed for 80 min after which 20 ul of ADP-Glo reagent is added. After a further incubation of 40 min, 40 ul of Kinase Detection Buffer is added. The assays are incubated for 40 min and then read on PerkinElmer Envision for 1 sec/well.

Chain of PI3K-α (P42336 whole entry): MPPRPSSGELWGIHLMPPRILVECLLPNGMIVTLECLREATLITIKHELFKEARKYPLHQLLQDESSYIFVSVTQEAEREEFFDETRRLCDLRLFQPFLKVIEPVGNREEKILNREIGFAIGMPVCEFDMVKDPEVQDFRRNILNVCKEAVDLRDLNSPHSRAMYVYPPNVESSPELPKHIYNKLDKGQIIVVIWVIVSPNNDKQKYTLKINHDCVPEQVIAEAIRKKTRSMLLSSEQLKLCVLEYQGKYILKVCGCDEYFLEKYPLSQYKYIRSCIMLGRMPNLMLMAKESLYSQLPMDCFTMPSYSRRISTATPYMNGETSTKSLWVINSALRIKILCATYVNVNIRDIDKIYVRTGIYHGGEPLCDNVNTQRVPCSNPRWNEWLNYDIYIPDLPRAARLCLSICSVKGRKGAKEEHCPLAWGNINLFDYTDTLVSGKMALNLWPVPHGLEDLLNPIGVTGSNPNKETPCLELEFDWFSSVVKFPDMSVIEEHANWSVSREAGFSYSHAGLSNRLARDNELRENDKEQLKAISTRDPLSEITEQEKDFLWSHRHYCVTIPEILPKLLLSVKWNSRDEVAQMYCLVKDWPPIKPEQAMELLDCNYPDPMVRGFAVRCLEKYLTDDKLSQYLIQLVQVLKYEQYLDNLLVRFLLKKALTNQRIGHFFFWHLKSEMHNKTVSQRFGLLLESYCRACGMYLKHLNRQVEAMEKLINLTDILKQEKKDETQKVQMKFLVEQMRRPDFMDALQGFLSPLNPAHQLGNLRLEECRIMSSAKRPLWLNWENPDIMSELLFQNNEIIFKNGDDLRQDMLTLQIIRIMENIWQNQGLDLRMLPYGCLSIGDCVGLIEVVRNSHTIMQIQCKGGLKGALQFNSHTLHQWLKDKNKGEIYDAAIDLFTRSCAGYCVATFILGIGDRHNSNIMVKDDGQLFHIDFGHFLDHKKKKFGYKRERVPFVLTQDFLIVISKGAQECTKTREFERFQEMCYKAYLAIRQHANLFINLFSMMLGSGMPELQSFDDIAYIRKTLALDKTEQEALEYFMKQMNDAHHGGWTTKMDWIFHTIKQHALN
Chain of PI3K-α (P27986 whole entry partner): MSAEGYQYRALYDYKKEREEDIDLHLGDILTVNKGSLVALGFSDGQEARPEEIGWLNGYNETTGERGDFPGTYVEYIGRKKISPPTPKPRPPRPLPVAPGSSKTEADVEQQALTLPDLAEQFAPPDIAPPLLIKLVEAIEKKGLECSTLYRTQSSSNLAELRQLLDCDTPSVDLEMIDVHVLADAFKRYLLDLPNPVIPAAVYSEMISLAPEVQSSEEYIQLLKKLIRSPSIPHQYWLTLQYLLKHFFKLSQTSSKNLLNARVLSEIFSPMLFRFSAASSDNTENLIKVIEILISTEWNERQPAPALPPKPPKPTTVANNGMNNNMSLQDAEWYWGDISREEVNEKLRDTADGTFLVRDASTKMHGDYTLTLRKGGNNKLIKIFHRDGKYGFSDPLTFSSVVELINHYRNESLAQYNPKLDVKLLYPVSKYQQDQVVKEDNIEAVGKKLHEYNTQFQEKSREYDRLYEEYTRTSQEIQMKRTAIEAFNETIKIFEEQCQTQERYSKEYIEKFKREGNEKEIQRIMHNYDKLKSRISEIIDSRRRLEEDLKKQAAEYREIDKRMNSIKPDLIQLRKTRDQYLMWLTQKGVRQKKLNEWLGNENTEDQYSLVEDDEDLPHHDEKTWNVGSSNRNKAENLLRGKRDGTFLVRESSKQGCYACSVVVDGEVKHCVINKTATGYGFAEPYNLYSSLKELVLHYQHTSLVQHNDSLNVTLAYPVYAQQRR

Row | Structure (SMILES) | inhibition at 0.5 µM [%]
1 | N#CCc1ccc(Nc2ncnc3ccc(-c4ccc(-c5ccccc5)cc4)cc23)cc1 [Compound 16, 6-(4-phenylphenyl)-4-(4-cyanomethyl)phenylamino-quinazoline] | < 0
2 | CCOc1ccc(-c2ccc(-c3ccc4ncnc(Nc5ccc(CC#N)cc5)c4c3)cc2)cc1 [Compound 17, 6-(4-(4-ethoxyphenyl)phenyl)-4-(4-cyanomethyl)phenylamino-quinazoline] | < 0
3 | N#CCc1ccc(Nc2ncnc3ccc(-c4ccc(-c5ccccc5)cc4F)cc23)cc1 [Compound 18, 6-(4-phenyl-2-fluorophenyl)-4-(4-cyanomethyl)phenylamino-quinazoline] | 20.3
4 | N#CCc1ccc(Nc2ncnc3ccc(-c4ccc5ccccc5c4)cc23)cc1 [Compound 19, 6-(naphthalen-2-yl)-4-(4-cyanomethyl)phenylamino-quinazoline] | 8.2
5 | N#CCc1ccc(Nc2ncnc3ccc(-c4ccc5c(c4)OCCO5)cc23)cc1 [Compound 20, 6-(2,3-dihydrobenzo[b][1,4]dioxin-6-yl)-4-(4-cyanomethyl)phenylamino-quinazoline] | 33

Same assay, conditions: read-out: PI3K inhibition IC50 -α

Row | Structure (SMILES) | IC50 [µM]
6 | N#CCc1ccc(Nc2ncnc3ccc(-c4ccc5c(c4)OCCO5)cc23)cc1 [Compound 20, 6-(2,3-dihydrobenzo[b][1,4]dioxin-6-yl)-4-(4-cyanomethyl)phenylamino-quinazoline] | 0.342

Each compound was assayed on A-375 (melanoma) cells (assay: MTT cytotoxicity assay, A375). Settings: Homo sapiens, 48 h treatment, read-out: Anticancer activity IC50 A375.
Assay type: cell-based
Experimental: (§1) Compounds proposed in present invention were evaluated for their cytotoxic effect against panel of 5 cancer cell line viz. Panc-1 (pancreatic cancer), MCF-7 (breast cancer), PC-3 (prostate), HL-60 (leukemia) and A-375 (melanoma) using MTT assay. In each well of a 96-well plate, 3×10^3 cells were grown in 100 μL of medium. After 24 h, each test molecules were added to achieve a final concentration of 10 to 0.01 μmol/L, respectively. After 48 h of treatment, 20 μL of 2.5 mg/mL MTT (Organics Research, Inc.) solution in phosphate buffer saline was added to each well. […], supernatant was removed and formazan crystals were dissolved in 200 μL of DMSO. Absorbance was then measured at 570 nm using an absorbance plate reader (Bio-Rad Microplate Reader). Data are expressed as the percentage of viable cells in treated relative to non-treated conditions. Each experiment was repeated thrice and data was expressed as mean±SD of three independent experiments (Mordant, P. et al., Mol. Cancer Ther. 2010, 9, 358).

Row | Structure (SMILES) | IC50 [µM]
7 | N#CCc1ccc(Nc2ncnc3ccc(-c4ccc(-c5ccccc5)cc4)cc23)cc1 [Compound 16, 6-(4-phenylphenyl)-4-(4-cyanomethyl)phenylamino-quinazoline] | 13
8 | CCOc1ccc(-c2ccc(-c3ccc4ncnc(Nc5ccc(CC#N)cc5)c4c3)cc2)cc1 [Compound 17, 6-(4-(4-ethoxyphenyl)phenyl)-4-(4-cyanomethyl)phenylamino-quinazoline] | 30
9 | N#CCc1ccc(Nc2ncnc3ccc(-c4ccc(-c5ccccc5)cc4F)cc23)cc1 [Compound 18, 6-(4-phenyl-2-fluorophenyl)-4-(4-cyanomethyl)phenylamino-quinazoline] | 32
10 | N#CCc1ccc(Nc2ncnc3ccc(-c4ccc5ccccc5c4)cc23)cc1 [Compound 19, 6-(naphthalen-2-yl)-4-(4-cyanomethyl)phenylamino-quinazoline] | 31
11 | N#CCc1ccc(Nc2ncnc3ccc(-c4ccc5c(c4)OCCO5)cc23)cc1 [Compound 20, 6-(2,3-dihydrobenzo[b][1,4]dioxin-6-yl)-4-(4-cyanomethyl)phenylamino-quinazoline] | 27

The compounds below were run against PI3K-β (Homo sapiens, UniProt P42338) (assay: PI3K-β assay (ADP-Glo)). Settings: read-out: PI3K inhibition IC50 -β.
Assay type: biochemical
Experimental: The enzyme is assayed for 60 min after which 20 ul of ADP-Glo reagent is added. After a further incubation of 40 min, 40 ul of kinase detection Buffer is added. The assays are incubated for 40 min and then read on PerkinElmer Envision for 1 sec/well.

Chain of PI3K-β (P42338 whole entry, species assumed): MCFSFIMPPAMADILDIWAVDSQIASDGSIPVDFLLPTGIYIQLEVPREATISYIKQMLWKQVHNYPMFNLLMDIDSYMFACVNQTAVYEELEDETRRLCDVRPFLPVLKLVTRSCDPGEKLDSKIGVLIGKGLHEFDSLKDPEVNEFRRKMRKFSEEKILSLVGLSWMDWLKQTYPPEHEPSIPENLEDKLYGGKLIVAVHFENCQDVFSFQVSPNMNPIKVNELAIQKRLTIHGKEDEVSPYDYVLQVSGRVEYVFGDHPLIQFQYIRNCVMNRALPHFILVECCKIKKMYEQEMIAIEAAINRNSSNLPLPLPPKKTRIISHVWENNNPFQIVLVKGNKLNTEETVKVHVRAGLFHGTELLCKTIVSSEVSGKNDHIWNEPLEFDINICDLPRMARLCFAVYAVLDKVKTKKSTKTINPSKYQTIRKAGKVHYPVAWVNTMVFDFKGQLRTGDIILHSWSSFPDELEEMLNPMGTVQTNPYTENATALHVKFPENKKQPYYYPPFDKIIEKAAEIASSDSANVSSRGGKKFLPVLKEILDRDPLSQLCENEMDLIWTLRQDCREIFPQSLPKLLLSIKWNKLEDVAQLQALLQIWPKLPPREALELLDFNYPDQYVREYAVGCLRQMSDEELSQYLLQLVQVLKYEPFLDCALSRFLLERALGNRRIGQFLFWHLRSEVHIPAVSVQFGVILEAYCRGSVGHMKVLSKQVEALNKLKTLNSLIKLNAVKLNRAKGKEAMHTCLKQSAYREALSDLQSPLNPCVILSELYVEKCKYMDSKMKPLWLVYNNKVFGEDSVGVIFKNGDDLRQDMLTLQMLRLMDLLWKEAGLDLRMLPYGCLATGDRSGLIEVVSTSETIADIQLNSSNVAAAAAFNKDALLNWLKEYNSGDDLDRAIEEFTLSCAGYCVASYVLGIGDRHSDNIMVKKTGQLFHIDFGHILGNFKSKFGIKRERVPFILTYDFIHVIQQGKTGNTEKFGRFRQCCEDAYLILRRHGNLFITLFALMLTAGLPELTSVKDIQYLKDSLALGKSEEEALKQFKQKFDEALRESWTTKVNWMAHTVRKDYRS
Chain of PI3K-β (P27986 whole entry partner, species assumed): as the sequence (P27986 whole entry partner) above

Row | Structure (SMILES) | IC50 [µM]
12 | N#CCc1ccc(Nc2ncnc3ccc(-c4ccc5c(c4)OCCO5)cc23)cc1 [Compound 20, 6-(2,3-dihydrobenzo[b][1,4]dioxin-6-yl)-4-(4-cyanomethyl)phenylamino-quinazoline] | > 10

Same assay, conditions: α versus β isoform

Row | Structure (SMILES) | Fold-selectivity for PI3K-α with respect to -β [fold]
13 | N#CCc1ccc(Nc2ncnc3ccc(-c4ccc5c(c4)OCCO5)cc23)cc1 [Compound 20, 6-(2,3-dihydrobenzo[b][1,4]dioxin-6-yl)-4-(4-cyanomethyl)phenylamino-quinazoline] | >29.2

These compounds were tested on PC-3 (prostate cancer) cells (assay: MTT cytotoxicity assay, PC-3). Settings: Homo sapiens, 48 h treatment, read-out: Anticancer activity IC50 PC-3.
Assay type: cell-based
Experimental: as §1

Row | Structure (SMILES) | IC50 [µM]
14 | N#CCc1ccc(Nc2ncnc3ccc(-c4ccc(-c5ccccc5)cc4)cc23)cc1 [Compound 16, 6-(4-phenylphenyl)-4-(4-cyanomethyl)phenylamino-quinazoline] | 10
15 | CCOc1ccc(-c2ccc(-c3ccc4ncnc(Nc5ccc(CC#N)cc5)c4c3)cc2)cc1 [Compound 17, 6-(4-(4-ethoxyphenyl)phenyl)-4-(4-cyanomethyl)phenylamino-quinazoline] | 17
16 | N#CCc1ccc(Nc2ncnc3ccc(-c4ccc(-c5ccccc5)cc4F)cc23)cc1 [Compound 18, 6-(4-phenyl-2-fluorophenyl)-4-(4-cyanomethyl)phenylamino-quinazoline] | 14
17 | N#CCc1ccc(Nc2ncnc3ccc(-c4ccc5ccccc5c4)cc23)cc1 [Compound 19, 6-(naphthalen-2-yl)-4-(4-cyanomethyl)phenylamino-quinazoline] | 22
18 | N#CCc1ccc(Nc2ncnc3ccc(-c4ccc5c(c4)OCCO5)cc23)cc1 [Compound 20, 6-(2,3-dihydrobenzo[b][1,4]dioxin-6-yl)-4-(4-cyanomethyl)phenylamino-quinazoline] | 34

What follows are compounds tested on HL-60 (leukemia) cells (assay: MTT cytotoxicity assay, HL-60). Settings: Homo sapiens, 48 h treatment, read-out: Anticancer activity IC50 HL-60.
Assay type: cell-based
Experimental: as §1

Row | Structure (SMILES) | IC50 [µM]
19 | N#CCc1ccc(Nc2ncnc3ccc(-c4ccc(-c5ccccc5)cc4)cc23)cc1 [Compound 16, 6-(4-phenylphenyl)-4-(4-cyanomethyl)phenylamino-quinazoline] | 16
20 | CCOc1ccc(-c2ccc(-c3ccc4ncnc(Nc5ccc(CC#N)cc5)c4c3)cc2)cc1 [Compound 17, 6-(4-(4-ethoxyphenyl)phenyl)-4-(4-cyanomethyl)phenylamino-quinazoline] | 16
21 | N#CCc1ccc(Nc2ncnc3ccc(-c4ccc(-c5ccccc5)cc4F)cc23)cc1 [Compound 18, 6-(4-phenyl-2-fluorophenyl)-4-(4-cyanomethyl)phenylamino-quinazoline] | 16
22 | N#CCc1ccc(Nc2ncnc3ccc(-c4ccc5ccccc5c4)cc23)cc1 [Compound 19, 6-(naphthalen-2-yl)-4-(4-cyanomethyl)phenylamino-quinazoline] | 25
23 | N#CCc1ccc(Nc2ncnc3ccc(-c4ccc5c(c4)OCCO5)cc23)cc1 [Compound 20, 6-(2,3-dihydrobenzo[b][1,4]dioxin-6-yl)-4-(4-cyanomethyl)phenylamino-quinazoline] | 21

These compounds were tested on Panc-1 (pancreatic cancer) cells (assay: MTT cytotoxicity assay, Panc-1). Settings: Homo sapiens, 48 h treatment, read-out: Anticancer activity IC50 Panc-1.
Assay type: cell-based
Experimental: as §1

Row | Structure (SMILES) | IC50 [µM]
24 | N#CCc1ccc(Nc2ncnc3ccc(-c4ccc(-c5ccccc5)cc4)cc23)cc1 [Compound 16, 6-(4-phenylphenyl)-4-(4-cyanomethyl)phenylamino-quinazoline] | 30
25 | CCOc1ccc(-c2ccc(-c3ccc4ncnc(Nc5ccc(CC#N)cc5)c4c3)cc2)cc1 [Compound 17, 6-(4-(4-ethoxyphenyl)phenyl)-4-(4-cyanomethyl)phenylamino-quinazoline] | 33
26 | N#CCc1ccc(Nc2ncnc3ccc(-c4ccc(-c5ccccc5)cc4F)cc23)cc1 [Compound 18, 6-(4-phenyl-2-fluorophenyl)-4-(4-cyanomethyl)phenylamino-quinazoline] | 33
27 | N#CCc1ccc(Nc2ncnc3ccc(-c4ccc5ccccc5c4)cc23)cc1 [Compound 19, 6-(naphthalen-2-yl)-4-(4-cyanomethyl)phenylamino-quinazoline] | 48
28 | N#CCc1ccc(Nc2ncnc3ccc(-c4ccc5c(c4)OCCO5)cc23)cc1 [Compound 20, 6-(2,3-dihydrobenzo[b][1,4]dioxin-6-yl)-4-(4-cyanomethyl)phenylamino-quinazoline] | 32

What follows are compounds tested on MCF-7 (breast cancer) cells (assay: MTT cytotoxicity assay, MCF-7). Settings: Homo sapiens, MCF7, 48 h treatment, read-out: Anticancer activity IC50 MCF-7.
Assay type: cell-based
Experimental: as §1

Row | Structure (SMILES) | IC50 [µM]
29 | N#CCc1ccc(Nc2ncnc3ccc(-c4ccc(-c5ccccc5)cc4)cc23)cc1 [Compound 16, 6-(4-phenylphenyl)-4-(4-cyanomethyl)phenylamino-quinazoline] | 29
30 | CCOc1ccc(-c2ccc(-c3ccc4ncnc(Nc5ccc(CC#N)cc5)c4c3)cc2)cc1 [Compound 17, 6-(4-(4-ethoxyphenyl)phenyl)-4-(4-cyanomethyl)phenylamino-quinazoline] | 26
31 | N#CCc1ccc(Nc2ncnc3ccc(-c4ccc(-c5ccccc5)cc4F)cc23)cc1 [Compound 18, 6-(4-phenyl-2-fluorophenyl)-4-(4-cyanomethyl)phenylamino-quinazoline] | 13
32 | N#CCc1ccc(Nc2ncnc3ccc(-c4ccc5ccccc5c4)cc23)cc1 [Compound 19, 6-(naphthalen-2-yl)-4-(4-cyanomethyl)phenylamino-quinazoline] | 16
33 | N#CCc1ccc(Nc2ncnc3ccc(-c4ccc5c(c4)OCCO5)cc23)cc1 [Compound 20, 6-(2,3-dihydrobenzo[b][1,4]dioxin-6-yl)-4-(4-cyanomethyl)phenylamino-quinazoline] | 34

What follows are compounds tested against PI3K-δ (Homo sapiens, UniProt O00329) (assay: PI3K-δ assay (ADP-Glo)). Settings: read-out: PI3K inhibition IC50 -δ.
Assay type: biochemical
Experimental: Compounds proposed in present invention were evaluated for their inhibitory activity on phosphoinositide-3-kinase-alpha and other isoforms (beta, gamma and delta). […] The protocols used for these bioassays are as follows:
The enzyme is assayed for 120 min after which 20 ul of ADP-Glo reagent is added. After a further incubation of 40 min, 40 ul of Kinase Detection Buffer is added. The assays are incubated for 40 min and then read on PerkinElmer Envision for 1 sec/well.

Chain of PI3K-δ (O00329 whole entry, species assumed): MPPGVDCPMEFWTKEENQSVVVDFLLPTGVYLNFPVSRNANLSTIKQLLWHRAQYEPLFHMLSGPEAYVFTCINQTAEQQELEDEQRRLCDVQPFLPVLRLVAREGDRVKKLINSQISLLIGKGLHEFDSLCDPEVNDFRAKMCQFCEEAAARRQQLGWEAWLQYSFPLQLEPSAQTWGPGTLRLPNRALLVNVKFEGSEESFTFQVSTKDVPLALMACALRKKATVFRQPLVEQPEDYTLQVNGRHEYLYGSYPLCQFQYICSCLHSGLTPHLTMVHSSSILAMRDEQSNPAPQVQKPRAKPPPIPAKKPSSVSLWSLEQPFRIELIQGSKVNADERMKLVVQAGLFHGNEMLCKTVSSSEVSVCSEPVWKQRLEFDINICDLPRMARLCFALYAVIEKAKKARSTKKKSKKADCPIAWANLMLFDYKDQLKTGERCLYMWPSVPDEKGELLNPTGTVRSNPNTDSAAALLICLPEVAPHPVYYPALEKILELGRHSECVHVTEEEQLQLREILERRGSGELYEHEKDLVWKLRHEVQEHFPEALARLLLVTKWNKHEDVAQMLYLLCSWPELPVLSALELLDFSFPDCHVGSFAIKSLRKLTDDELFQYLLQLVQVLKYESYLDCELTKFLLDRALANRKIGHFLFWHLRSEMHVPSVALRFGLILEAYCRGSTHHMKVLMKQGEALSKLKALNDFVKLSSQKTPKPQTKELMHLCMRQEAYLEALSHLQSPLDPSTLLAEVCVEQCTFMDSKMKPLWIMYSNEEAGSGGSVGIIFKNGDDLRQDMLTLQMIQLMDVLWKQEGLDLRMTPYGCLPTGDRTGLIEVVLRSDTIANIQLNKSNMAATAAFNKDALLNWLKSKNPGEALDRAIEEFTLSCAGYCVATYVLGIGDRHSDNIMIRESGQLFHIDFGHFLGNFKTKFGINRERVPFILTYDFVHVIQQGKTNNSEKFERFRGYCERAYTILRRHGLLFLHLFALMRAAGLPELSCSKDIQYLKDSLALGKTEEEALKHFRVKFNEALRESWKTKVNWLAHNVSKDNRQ
Chain of PI3K-δ (P27986 whole entry partner, species assumed): as the sequence (P27986 whole entry partner) above

Row | Structure (SMILES) | IC50 [µM]
34 | N#CCc1ccc(Nc2ncnc3ccc(-c4ccc5c(c4)OCCO5)cc23)cc1 [Compound 20, 6-(2,3-dihydrobenzo[b][1,4]dioxin-6-yl)-4-(4-cyanomethyl)phenylamino-quinazoline] | > 10

Same assay, conditions: α versus δ isoform

Row | Structure (SMILES) | Fold-selectivity for PI3K-α with respect to -δ [fold]
35 | N#CCc1ccc(Nc2ncnc3ccc(-c4ccc5c(c4)OCCO5)cc23)cc1 [Compound 20, 6-(2,3-dihydrobenzo[b][1,4]dioxin-6-yl)-4-(4-cyanomethyl)phenylamino-quinazoline] | >29.2

What follows are compounds tested against PI3K-γ (Homo sapiens, UniProt P48736) (assay: PI3K-γ assay (ADP-Glo)). Settings: read-out: PI3K inhibition IC50 -γ.
Assay type: biochemical
Experimental: The enzyme is assayed for 75 min after which 20 ul of ADP-Glo reagent is added. After a further incubation of 40 min, 40 ul of Kinase Detection Buffer is added. The assays are incubated for 40 min and then read on PerkinElmer Envision for 1 sec/well.

Chain of PI3K-γ (P48736 whole entry, species assumed): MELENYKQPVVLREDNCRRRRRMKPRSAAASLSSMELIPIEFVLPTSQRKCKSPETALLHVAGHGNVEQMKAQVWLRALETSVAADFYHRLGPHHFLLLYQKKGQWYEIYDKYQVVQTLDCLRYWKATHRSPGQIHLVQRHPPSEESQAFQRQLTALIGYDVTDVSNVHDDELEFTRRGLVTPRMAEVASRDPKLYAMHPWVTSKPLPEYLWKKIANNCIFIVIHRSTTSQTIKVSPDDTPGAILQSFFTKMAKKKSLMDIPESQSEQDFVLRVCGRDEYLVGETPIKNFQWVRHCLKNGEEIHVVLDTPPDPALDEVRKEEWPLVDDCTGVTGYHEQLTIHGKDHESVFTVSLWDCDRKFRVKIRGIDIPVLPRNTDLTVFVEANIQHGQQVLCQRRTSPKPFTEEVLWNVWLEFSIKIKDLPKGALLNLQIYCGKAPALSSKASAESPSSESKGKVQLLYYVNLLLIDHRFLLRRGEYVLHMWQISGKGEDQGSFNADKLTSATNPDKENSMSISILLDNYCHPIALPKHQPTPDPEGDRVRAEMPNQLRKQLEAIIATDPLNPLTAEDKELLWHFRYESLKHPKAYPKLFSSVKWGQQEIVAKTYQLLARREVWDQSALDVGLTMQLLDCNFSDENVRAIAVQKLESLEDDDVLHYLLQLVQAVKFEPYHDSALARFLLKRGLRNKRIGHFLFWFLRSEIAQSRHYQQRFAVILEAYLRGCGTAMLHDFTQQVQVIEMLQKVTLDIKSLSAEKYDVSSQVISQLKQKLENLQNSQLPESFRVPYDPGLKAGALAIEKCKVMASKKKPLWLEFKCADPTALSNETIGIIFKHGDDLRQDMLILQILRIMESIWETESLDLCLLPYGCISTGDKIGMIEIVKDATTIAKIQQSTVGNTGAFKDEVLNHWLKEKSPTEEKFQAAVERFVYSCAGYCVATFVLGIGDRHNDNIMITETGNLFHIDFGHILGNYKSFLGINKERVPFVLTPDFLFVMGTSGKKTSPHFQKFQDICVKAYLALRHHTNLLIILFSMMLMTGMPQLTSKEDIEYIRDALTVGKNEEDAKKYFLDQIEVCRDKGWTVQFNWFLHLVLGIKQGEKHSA

Row | Structure (SMILES) | IC50 [µM]
36 | N#CCc1ccc(Nc2ncnc3ccc(-c4ccc5c(c4)OCCO5)cc23)cc1 [Compound 20, 6-(2,3-dihydrobenzo[b][1,4]dioxin-6-yl)-4-(4-cyanomethyl)phenylamino-quinazoline] | 1.37

Same assay, conditions: α versus γ isoform

Row | Structure (SMILES) | Fold-selectivity for PI3K-α with respect to -γ [fold]
37 | N#CCc1ccc(Nc2ncnc3ccc(-c4ccc5c(c4)OCCO5)cc23)cc1 [Compound 20, 6-(2,3-dihydrobenzo[b][1,4]dioxin-6-yl)-4-(4-cyanomethyl)phenylamino-quinazoline] | 4
